In PMC8536644, “Enigmatic mechanism of the N-vinylpyrrolidone hepatocarcinogenicity in the rat” (Archives of Toxicology, 2021):
Several values for one entry are separate records, joined by “and”; a condition that tells them apart may be missing. Identical values can stand only once.

What was measured:
[1] = tested on: rat lung cells; assay: Comet assay, conventional (no FPG), lung; conditions: no FPG; for Increase of the TI vs vehicle control / Hedgehogs/100 cells (mean ± SD) / TI (%) (mean ± SD) / TI (%), mean of medians from 2 slides: lung; for Increase of the TI vs vehicle control: p ≤ 0.01; for Hedgehogs/100 cells (mean ± SD) / TI (%) (mean ± SD) / TI (%), mean of medians from 2 slides: 200 mg/kg bw oral, once; for TI (%), mean of medians from 2 slides: individual animals
Description: (§1) Animals were anesthetized by 3.5% isoflurane (approximately 3 min, evaporator Dräger Vapor 19.3) and then killed by cervical dislocation. The liver was removed and its left lateral lobe used for the Comet assay. The remainder of the liver was washed in saline and then in two aliquots shock frozen in liquid nitrogen and stored at − 80 °C for later examinations. Subsequently the lung was removed from the dead animal. Its left lobe was used for the Comet assay and the remainder treated as described above for the liver. Thereafter the femora were removed for the preparation of the bone marrow.
(§2) The Comet assay was performed under alkaline conditions according to the principles described by Singh et al. ([1988]) and Tice et al. ([2000]).
(§3) Liver and lung cells were obtained essentially as described by Hartmann et al. ([2004]) and by the Japanese Center for the Validation of Alternative Methods (JaCVAM [2009]). Single cells were obtained within 1 h after killing of the animals in order to minimize DNA damage during the preparation.
(§4) The organ parts (see above) were washed in mincing buffer (50 mM EDTA in HBSS [without Ca^2+ and Mg^2+] pH 7.5: DMSO 9:1 (v/v), the latter added shortly before use, stored at 4 °C), cut into 1 to 2-mm pieces in ice-cold mincing buffer and transferred to a cell sieve with 70-µm pores. The viability of the cell suspension was evaluated by the Trypan Blue Assay (Strober [2001]).
(§5) 100 µL of the obtained cell suspension was mixed at 37 °C with 900 µL Low Melting Agarose (LMA) (0.7% agarose in phosphate-buffered saline [PBS] [Biochrom, Berlin, Germany] without Ca^2+ and Mg^2+). 100 µL of this mixture was transferred to a slide, which had been coated with Normal Melting Agarose (NMA) (0.6% agarose in PBS without Ca^2+ and Mg^2+). The slides were protected with a cover slip and the agarose was hardened at approximately 4 °C. The cover slips were then removed and the slides put over night at 4 °C into lysis buffer (2.5 M NaCl, 125 mM NaOH, 127 mM EDTA, 10 mM Tris/NaOH, pH 10; 1% Triton X-100 and 10% DMSO (v/v), the latter two added before use) in order to lyse the cell membrane, nuclear membrane and remove the histone.
(§6) The then following procedures were performed in a shaded room to minimize UV-mediated DNA damage during the procedures.
(§7) Remaining lysis buffer or FPG buffer was removed by immersing/washing the slides in PBS (without Ca^2+ and Mg^2+).
The slides were then placed into the electrophoresis chamber, which was cooled and protected from light. Slides were covered with electrophoresis buffer (0.3 M NaOH, 1 mM EDTA, pH > 13) carefully avoiding air bubbles. The DNA was allowed to unwind (20 min). Thereafter the electrophoresis was started (25 V, 300 mA, […], 30 min). The slides were then washed (2 times 5 min) in neutralization buffer (0.4 M Tris/HCl, pH 7.5), dehydrated and fixed in 100% ethanol (1 min), dried at room temperature overnight and stored at room temperature protected from dust.
Quantitative evaluation of the Comet assays was performed by fluorescence microscopy after DNA staining with ethidium bromide.

[2] = tested on: rat liver cells; assay: Comet assay in presence of FPG, liver; conditions: in presence of FPG, 200 mg/kg
Description: as §1, §2, §3, §4, §5, §6
Those slides which were destined to be treated with the DNA base excision repair enzyme FPG (Sigma Aldrich, Steinheim, Germany) were washed (3 times for 5 min) with FPG buffer (0.04 M HEPES, 0.5 mM EDTA, 0.1 M KCl, pH 8; add shortly before use bovine serum albumin [BSA] to a final concentration of 0.02%). Subsequently 50 µL FPG-enzyme-buffer (prepared shortly prior to use by 30-fold dilution of the following suspension in FPG buffer: 7 µL FPG-enzyme (14 U) and 70 µL glycerol in 623 µL FPG-Puffer, stored at − 80 °C) was pipetted on the slide which was covered with a cover slide and incubated for 30 min at 37 °C while being placed on a humid filter paper. After hardening of the agarose cover slips were removed.
as §7

[3] = Trypan Blue viability of the single cell suspension, lung; format: in vivo, rat; conditions: Wistar, rat, in vivo, po, 200 mg/kg

CCOS(C)(=O)=O [EMS, ethyl methanesulfonate, reference compound]
Hedgehogs per 100 cells, averaged for both genders ([1]; lung cells, 200 mg/kg): 9 per 100 cells | Increase of the TI vs vehicle control ([1]; female, 200 mg/kg): 21 fold | Hedgehogs/100 cells (mean ± SD) ([1]; female): 9 ± 5 /100 cells | TI (%) (mean ± SD) ([1]; female): 16.7 ± 2.83% | TI (%), mean of medians from 2 slides ([1]; female, 200 mg/kg): 13.2% and 13.0% and 18.7% and 18.8% and 17.8% | Increase of the TI vs vehicle control ([1]; male, 200 mg/kg): 17 fold | Hedgehogs/100 cells (mean ± SD) ([1]; male): 9 ± 4 /100 cells | TI (%) (mean ± SD) ([1]; male): 19.3 ± 5.15% | TI (%), mean of medians from 2 slides ([1]; male, 200 mg/kg): 20.7% and 14.6% and 26.5% and 13.1% and 23.3% and 17.8% | Comets seen in presence of FPG [2]: only hedgehogs were seen | TI in presence of FPG (image analysis) [2]: marked increase | viability at 24 h ([3]; female, Individual viability (%)): 99% | viability at 24 h ([3]; female, Viability (%) (mean ± SD)): 99 ± 1% | viability at 24 h ([3]; male, Individual viability (%)): 99% | viability at 24 h ([3]; male, Viability (%) (mean ± SD)): 99 ± 1%
